Data taken from US20250026766A1, “Thiazolopyridyl Amide Derivatives as DNA Polymerase Theta Inhibitors” (BeiGene, Ltd., priority 2022, published 2025).

biological target: Pol Theta (1-894) (Homo sapiens (Human), UniProt O75417); test: Biochemical Pol Theta (1-894) ATPase IC50 assay (ADP-Glo, ssDNA substrate); details: ADP-Glo assay with ssDNA substrate, room temperature
Method in brief: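 His-tagged human Pol Theta 1-894 from Sf9 baculovirus cells, 2× enzyme solution at 12.5 nM, assayed with ssDNA substrate at room temperature in 40 mM Tris pH 7.5, 20 mM MgCl2, 1 mM DTT, 0.01% BSA, 0.05% Tween-20.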

Chain of Pol Theta (1-894) (O75417 1-894): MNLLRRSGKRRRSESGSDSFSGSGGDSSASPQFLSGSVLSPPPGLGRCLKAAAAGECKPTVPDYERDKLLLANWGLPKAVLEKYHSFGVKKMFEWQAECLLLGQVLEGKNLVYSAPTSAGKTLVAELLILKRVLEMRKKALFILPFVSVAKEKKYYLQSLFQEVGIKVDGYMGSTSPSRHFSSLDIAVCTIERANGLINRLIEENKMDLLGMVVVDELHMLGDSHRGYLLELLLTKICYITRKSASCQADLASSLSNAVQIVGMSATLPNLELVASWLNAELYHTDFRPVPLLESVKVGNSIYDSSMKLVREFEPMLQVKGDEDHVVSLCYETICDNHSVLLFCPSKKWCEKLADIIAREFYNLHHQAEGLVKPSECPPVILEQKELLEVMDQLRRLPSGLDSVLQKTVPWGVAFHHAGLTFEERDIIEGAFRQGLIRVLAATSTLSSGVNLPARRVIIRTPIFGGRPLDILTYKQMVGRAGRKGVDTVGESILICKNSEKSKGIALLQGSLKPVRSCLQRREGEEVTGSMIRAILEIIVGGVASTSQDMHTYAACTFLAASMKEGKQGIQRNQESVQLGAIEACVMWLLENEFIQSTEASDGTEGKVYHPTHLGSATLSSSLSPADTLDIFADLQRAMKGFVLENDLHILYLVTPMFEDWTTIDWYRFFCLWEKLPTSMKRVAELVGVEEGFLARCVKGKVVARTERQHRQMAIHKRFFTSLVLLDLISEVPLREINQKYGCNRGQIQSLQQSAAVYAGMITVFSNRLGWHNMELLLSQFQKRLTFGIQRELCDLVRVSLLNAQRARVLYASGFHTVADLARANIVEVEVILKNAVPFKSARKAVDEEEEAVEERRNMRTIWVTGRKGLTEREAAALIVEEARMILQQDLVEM

Row | SMILES | IC50
1 | COc1ccc(C#N)cc1-c1cc(C)ncc1C(=O)Nc1nc2ccc(-c3ccc(C#N)cn3)nc2s1 [Example 159, 4-(5-cyano-2-methoxyphenyl)-N-(5-(5-cyanopyridin-2-yl)thiazolo[5,4-b]pyridin-2-yl)-6-methylnicotinamide] | 5 nM
2 | COc1cc(-c2ccc3nc(NC(=O)c4cnc(C)cc4-c4cc(C#N)ccc4OC)sc3n2)ccc1C#N [Example 161, 4-(5-cyano-2-methoxyphenyl)-N-(5-(4-cyano-3-methoxyphenyl)thiazolo[5,4-b]pyridin-2-yl)-6-methylnicotinamide] | 36 nM
3 | COc1ccc(C#N)cc1-c1cc(C)ncc1C(=O)Nc1nc2ccc(-c3ccc(N4C(=O)COC4=O)c(C)c3)nc2s1 [Example 163, 4-(5-cyano-2-methoxyphenyl)-N-(5-(4-(2,4-dioxooxazolidin-3-yl)-3-methylphenyl)thiazolo[5,4-b]pyridin-2-yl)-6-methylnicotinamide] | 28 nM
4 | COc1ccc(C#N)cc1-c1cc(C)ncc1C(=O)Nc1nc2ccc(-c3ccc(N4CCCC4=O)nc3)nc2s1 [Example 164, 4-(5-cyano-2-methoxyphenyl)-6-methyl-N-(5-(6-(2-oxopyrrolidin-1-yl)pyridin-3-yl)thiazolo[5,4-b]pyridin-2-yl)nicotinamide] | 37 nM
5 | Cc1cc(-c2cc(C#N)ccc2C2CC2)c(C(=O)Nc2nc3ccc(-c4ccc(C#N)cc4)nc3s2)cn1 [Example 167, 4-(5-cyano-2-cyclopropylphenyl)-N-(5-(4-cyanophenyl)thiazolo[5,4-b]pyridin-2-yl)-6-methylnicotinamide] | 15 nM
6 | COc1ccc(C#N)cc1-c1cc(C)ncc1C(=O)Nc1nc2ccc(-c3ccc(CC#N)cn3)nc2s1 [Example 168, 4-(5-cyano-2-methoxyphenyl)-N-(5-(5-(cyanomethyl)pyridin-2-yl)thiazolo[5,4-b]pyridin-2-yl)-6-methylnicotinamide] | 4.4 nM
7 | COc1ccc(C#N)cc1-c1cc(C)ncc1C(=O)Nc1nc2ccc(-c3ccc(C#N)cc3C)nc2s1 [Example 169, 4-(5-cyano-2-methoxyphenyl)-N-(5-(4-cyano-2-methylphenyl)thiazolo[5,4-b]pyridin-2-yl)-6-methylnicotinamide] | 7.5 nM
8 | COc1ccc(C#N)cc1-c1cc(C)ncc1C(=O)Nc1nc2ccc(-c3ccc(OC4CNC4)cc3)nc2s1 [Example 170, N-(5-(4-(azetidin-3-yloxy)phenyl)thiazolo[5,4-b]pyridin-2-yl)-4-(5-cyano-2-methoxyphenyl)-6-methylnicotinamide] | 26 nM
9 | COc1ccc(C#N)cc1-c1cc(C)ncc1C(=O)Nc1nc2ccc(-c3ccc(CC#N)cc3C)nc2s1 [Example 172, 4-(5-cyano-2-methoxyphenyl)-N-(5-(4-(cyanomethyl)-2-methylphenyl)thiazolo[5,4-b]pyridin-2-yl)-6-methylnicotinamide] | 10 nM
10 | Cc1cc(-c2cc(C#N)c(=O)n(C)c2C)c(C(=O)Nc2nc3ccc(-c4ccc(C#N)cc4)nc3s2)cn1 [Example 173, 5-cyano-N-(5-(4-cyanophenyl)thiazolo[5,4-b]pyridin-2-yl)-1,2,6′-trimethyl-6-oxo-1,6-dihydro-[3,4′-bipyridine]-3′-carboxamide] | 26 nM
11 | COc1ccc(C#N)cc1-c1cc(C)ncc1C(=O)Nc1nc2ccc(-c3ccc(CN4CCCC4=O)cc3C)nc2s1 [Example 174, 4-(5-cyano-2-methoxyphenyl)-6-methyl-N-(5-(2-methyl-4-((2-oxopyrrolidin-1-yl)methyl)phenyl)thiazolo[5,4-b]pyridin-2-yl)nicotinamide] | 11 nM
12 | COc1ccc(C#N)cc1-c1cc(CO)ncc1C(=O)Nc1nc2ccc(-c3ccc(C#N)cc3C)nc2s1 [Example 176, 4-(5-cyano-2-methoxyphenyl)-N-(5-(4-cyano-2-methylphenyl)thiazolo[5,4-b]pyridin-2-yl)-6-(hydroxymethyl)nicotinamide] | 9.1 nM
13 | COc1ccc(C#N)cc1-c1cc(C)ncc1C(=O)Nc1nc2ccc(-c3ccc([C@@H](C)C#N)cc3)nc2s1 [Example 177A, (R)-4-(5-cyano-2-methoxyphenyl)-N-(5-(4-(1-cyanoethyl)phenyl)thiazolo[5,4-b]pyridin-2-yl)-6-methylnicotinamide] | 25 nM

Second part, the compound after the results:

Row | IC50 | SMILES
14 | 63 nM | COc1ccccc1-c1cnncc1C(=O)Nc1nc2ccc(Oc3ccc(S(C)(=O)=O)cc3)nc2s1 [Example 160, 5-(2-methoxyphenyl)-N-(5-(4-(methylsulfonyl)phenoxy)thiazolo[5,4-b]pyridin-2-yl)pyridazine-4-carboxamide]
15 | 29 nM | COc1ccccc1-c1cnncc1C(=O)Nc1nc2ccc(CCc3ccc(Cl)cn3)nc2s1 [Example 162, N-(5-(2-(5-chloropyridin-2-yl)ethyl)thiazolo[5,4-b]pyridin-2-yl)-5-(2-methoxyphenyl)pyridazine-4-carboxamide]
16 | 8.9 nM | COc1ccccc1-c1cnncc1C(=O)Nc1nc2ccc(-c3ccc(NC(C)=O)c(C)c3)nc2s1 [Example 165, N-(5-(4-acetamido-3-methylphenyl)thiazolo[5,4-b]pyridin-2-yl)-5-(2-methoxyphenyl)pyridazine-4-carboxamide]
17 | 13 nM | COc1ccc(C#N)cc1-c1cc(C)ncc1C(=O)Nc1nc2ccc(-c3ccc(C#N)c(C)c3)nc2s1 [Example 166, 4-(5-cyano-2-methoxyphenyl)-N-(5-(4-cyano-3-methylphenyl)thiazolo[5,4-b]pyridin-2-yl)-6-methylnicotinamide]
18 | 13 nM | COc1ccc(C#N)cc1-c1cc(C)ncc1C(=O)Nc1nc2ccc(-c3ccc(CC#N)c(C)c3)nc2s1 [Example 171, 4-(5-cyano-2-methoxyphenyl)-N-(5-(4-(cyanomethyl)-3-methylphenyl)thiazolo[5,4-b]pyridin-2-yl)-6-methylnicotinamide]
19 | 8.4 nM | COc1ccc(S(C)(=O)=O)cc1-c1cc(C)ncc1C(=O)Nc1nc2ccc(-c3ccc(C(N)=O)c(C)c3)nc2s1 [Example 175, N-(5-(4-carbamoyl-3-methylphenyl)thiazolo[5,4-b]pyridin-2-yl)-4-(2-methoxy-5-(methylsulfonyl)phenyl)-6-methylnicotinamide]
20 | 13 nM | COc1ccc(C#N)cc1-c1cc(C)ncc1C(=O)Nc1nc2ccc(-c3ccc([C@H](C)C#N)cc3)nc2s1 [Example 177B, (S)-4-(5-cyano-2-methoxyphenyl)-N-(5-(4-(1-cyanoethyl)phenyl)thiazolo[5,4-b]pyridin-2-yl)-6-methylnicotinamide]
